The text below walks through data of ChEMBL document CHEMBL4828709, “Discovery of 2,4-pyrimidinediamine derivatives as potent dual inhibitors of ALK and HDAC” (Eur J Med Chem, 2021).

Data set [1] concerns A549. Nature of the data set: Potency index, ratio of crizotinib IC50 to test compound IC50 for human A549 cells assessed as inhibition of cell proliferation measured after 72 hrs by CCK8 assay. The class given is functional. In general terms: Formazan colour is commonly taken as a measure of viable cells.
The subject of data set [2] is SH-SY5Y. Nature of the data set: Potency index, ratio of crizotinib IC50 to test compound IC50 for human SH-SY5Y cells harboring ALK F1174L mutant assessed as inhibition of cell proliferation measured after 72 hrs by CCK8 assay. The class given is functional.
Data set [3] concerns SH-SY5Y. Nature of the data set: Cell cycle arrest in human SH-SY5Y cells assessed as accumulation of cells at G1 phase at 1 uM measured after 24 hrs by PI staining based flowcytometry method (reference value: 59.8%). The class given is functional.
The test system of data set [4] is A549. Briefly: cells. The class given is functional, cell-based. The conditions noted are these: Homo sapiens, A549, 72 h.
Description: Antiproliferative activity against human A549 cells assessed as inhibition of cell proliferation measured after 72 hrs by CCK8 assay
The target in data set [5] is T1, ALK tyrosine kinase receptor (Homo sapiens, UniProt Q9UM73). Briefly: Inhibition of ALK in human MDA-MB-231 cells assessed as inhibition of Akt phosphorylation at Ser473 residue measured after 24 hrs by Western blot assay. The class given is cell-based. Conditions: dose 1-4 µM. On the technique in general: In western blotting, separated proteins are transferred to a membrane and probed.

For data set [6], the target named is T1, ALK tyrosine kinase receptor. Briefly: Inhibition of human ALK in human SH-SY5Y cells assessed as inhibition of ERK phosphorylation at Thr202/Tyr204 residue measured after 24 hrs by Western blot assay. The class given is cell-based. The conditions noted are these: dose 1-4 µM.
Data set [7] has as its system MDA-MB-231. Nature of the data set: Cell cycle arrest in human MDA-MB-231 cells assessed as accumulation of cells at S phase at 4 uM measured after 24 hrs by PI staining based flowcytometry method (reference value: 20.81%). The class given is functional.
The target of data set [8] is T1, ALK tyrosine kinase receptor. Briefly: Inhibition of ALK in human MDA-MB-231 cells assessed as inhibition of ERK phosphorylation at Thr202/Tyr204 residue measured after 24 hrs by Western blot assay. The class given is cell-based. Conditions: dose 1-4 µM.
The nature of data set [9]: MRT (0 to infinity) in Sprague-Dawley rat at 1 mg/kg, iv measured for 12 hrs by LC-MS/MS analysis. The conditions noted are these: in vivo. The class given is ADME, organism-based.
In data set [10] the test system is MDA-MB-231. Briefly: Cell cycle arrest in human MDA-MB-231 cells assessed as accumulation of cells at S phase at 1 uM measured after 24 hrs by PI staining based flowcytometry method (reference value: 20.81%). The class given is functional.
For data set [11], the target named is T1, ALK tyrosine kinase receptor. Nature of the data set: Inhibition of human ALK at 1 uM.
Data set [12] is described as follows: Potency index, ratio of ceritinib IC50 to test compound IC50 for human SKNBE2 cells harboring wild type ALK assessed as inhibition of cell proliferation measured after 72 hrs by CCK8 assay. The class given is functional.
The test system of data set [13] is ALK tyrosine kinase receptor (Homo sapiens), Q9UM73 [G1202R]. Nature of the data set: Potency index, ratio of ceritinib IC50 to test compound IC50 for inhibition of ALK G1202R mutant (unknown origin).
Data set [14] deals with MDA-MB-231. Nature of the data set: Induction of apoptosis in human MDA-MB-231 cells assessed as early apoptotic cells at 2 uM measured after 24 hrs by Annexin V-FITC/PI staining based flowcytometry (reference value: 0.64%). The class given is functional.
Data set [15] has as its system SH-SY5Y. Briefly: Induction of apoptosis in human SH-SY5Y cells assessed as early apoptotic cells at 2 uM measured after 24 hrs by Annexin V-FITC/PI staining based flowcytometry (reference value: 0.82%). The class given is functional.
The test system of data set [16] is MDA-MB-231. Nature of the data set: Induction of apoptosis in human MDA-MB-231 cells assessed as early apoptotic cells at 4 uM measured after 24 hrs by Annexin V-FITC/PI staining based flowcytometry (reference value: 0.64%). The class given is functional.
Data set [17] has as its system NCI-H2228. Nature of the data set: Potency index, ratio of crizotinib IC50 to test compound IC50 for human NCI-H2228 cells harboring EML4/ALK […] assessed as inhibition of cell proliferation measured after 72 hrs by CCK8 assay. The class given is functional.
The subject of data set [18] is MDA-MB-231. Briefly: Antimigratory activity against human MDA-MB-231 cells assessed as wound closure at 0.4 uM measured after 48 hrs by cell scratch assay (reference value: 30.3%). The class given is functional.
Data set [19] has as its system SH-SY5Y. Briefly: Cell cycle arrest in human SH-SY5Y cells assessed as accumulation of cells at G2 phase at 2 uM measured after 24 hrs by PI staining based Flowcytometry method (reference value: 13.23%). The class given is functional.
Data set [20] has as its target T1, ALK tyrosine kinase receptor. Briefly: Inhibition of ALK in human MDA-MB-231 cells assessed as inhibition of ERK phosphorylation at Thr202/Tyr204 residue at 4 uM measured after 24 hrs by Western blot assay. The class given is cell-based.
The nature of data set [21]: Cmax in Sprague-Dawley rat at 1 mg/kg, iv measured for 12 hrs by LC-MS/MS analysis. The class given is ADME, organism-based. Set-up: route intravenous, time 12 hrs, dose 1 mg/kg. Conditions: in vivo.
Data set [22] in a line: AUC (0 to infinity) in Sprague-Dawley rat at 1 mg/kg, iv measured for 12 hrs by LC-MS/MS analysis. The conditions noted are these: in vivo. The class given is ADME, organism-based. Set-up: route intravenous, dose 1 mg/kg, time 12 hrs.
The target of data set [23] is T2, Protein deacetylase HDAC6 (Homo sapiens, UniProt Q9UBN7).
T2 sequence (Q9UBN7 whole entry): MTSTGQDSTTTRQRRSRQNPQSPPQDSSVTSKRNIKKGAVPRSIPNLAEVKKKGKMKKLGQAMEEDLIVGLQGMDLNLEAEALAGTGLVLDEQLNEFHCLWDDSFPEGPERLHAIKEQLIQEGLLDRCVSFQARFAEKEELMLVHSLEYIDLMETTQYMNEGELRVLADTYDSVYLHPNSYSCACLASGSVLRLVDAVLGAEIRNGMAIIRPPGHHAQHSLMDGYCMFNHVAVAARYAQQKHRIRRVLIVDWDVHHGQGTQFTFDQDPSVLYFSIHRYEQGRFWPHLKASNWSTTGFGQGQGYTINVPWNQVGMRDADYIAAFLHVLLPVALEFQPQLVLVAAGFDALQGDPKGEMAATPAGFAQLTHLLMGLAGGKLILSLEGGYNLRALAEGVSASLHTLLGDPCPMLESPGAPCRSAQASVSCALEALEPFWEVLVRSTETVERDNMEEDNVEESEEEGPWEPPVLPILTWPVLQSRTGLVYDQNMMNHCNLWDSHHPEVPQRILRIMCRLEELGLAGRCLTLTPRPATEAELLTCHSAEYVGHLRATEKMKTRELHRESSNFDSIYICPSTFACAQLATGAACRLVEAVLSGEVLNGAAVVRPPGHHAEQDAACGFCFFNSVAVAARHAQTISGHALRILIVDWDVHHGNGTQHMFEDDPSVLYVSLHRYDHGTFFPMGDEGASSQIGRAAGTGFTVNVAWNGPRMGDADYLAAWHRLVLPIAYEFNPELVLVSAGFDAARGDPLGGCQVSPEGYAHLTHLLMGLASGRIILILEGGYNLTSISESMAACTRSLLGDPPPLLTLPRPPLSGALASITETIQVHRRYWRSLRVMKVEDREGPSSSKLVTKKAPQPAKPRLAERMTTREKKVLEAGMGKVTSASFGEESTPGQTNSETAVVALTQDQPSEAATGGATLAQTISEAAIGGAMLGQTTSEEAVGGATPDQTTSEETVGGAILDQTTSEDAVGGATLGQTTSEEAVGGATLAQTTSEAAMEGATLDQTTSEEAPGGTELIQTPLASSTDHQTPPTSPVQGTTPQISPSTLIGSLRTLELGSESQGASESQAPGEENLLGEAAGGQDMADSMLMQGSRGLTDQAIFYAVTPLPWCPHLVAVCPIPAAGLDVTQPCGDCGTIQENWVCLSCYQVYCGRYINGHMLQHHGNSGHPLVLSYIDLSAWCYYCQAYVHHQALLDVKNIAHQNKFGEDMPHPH
Description: Inhibition of HDAC6 (unknown origin)

Activity calls are given as the source filed them. The rule behind the calls is not given here.

T1 sequence (Q9UM73 19-1620 limits assumed): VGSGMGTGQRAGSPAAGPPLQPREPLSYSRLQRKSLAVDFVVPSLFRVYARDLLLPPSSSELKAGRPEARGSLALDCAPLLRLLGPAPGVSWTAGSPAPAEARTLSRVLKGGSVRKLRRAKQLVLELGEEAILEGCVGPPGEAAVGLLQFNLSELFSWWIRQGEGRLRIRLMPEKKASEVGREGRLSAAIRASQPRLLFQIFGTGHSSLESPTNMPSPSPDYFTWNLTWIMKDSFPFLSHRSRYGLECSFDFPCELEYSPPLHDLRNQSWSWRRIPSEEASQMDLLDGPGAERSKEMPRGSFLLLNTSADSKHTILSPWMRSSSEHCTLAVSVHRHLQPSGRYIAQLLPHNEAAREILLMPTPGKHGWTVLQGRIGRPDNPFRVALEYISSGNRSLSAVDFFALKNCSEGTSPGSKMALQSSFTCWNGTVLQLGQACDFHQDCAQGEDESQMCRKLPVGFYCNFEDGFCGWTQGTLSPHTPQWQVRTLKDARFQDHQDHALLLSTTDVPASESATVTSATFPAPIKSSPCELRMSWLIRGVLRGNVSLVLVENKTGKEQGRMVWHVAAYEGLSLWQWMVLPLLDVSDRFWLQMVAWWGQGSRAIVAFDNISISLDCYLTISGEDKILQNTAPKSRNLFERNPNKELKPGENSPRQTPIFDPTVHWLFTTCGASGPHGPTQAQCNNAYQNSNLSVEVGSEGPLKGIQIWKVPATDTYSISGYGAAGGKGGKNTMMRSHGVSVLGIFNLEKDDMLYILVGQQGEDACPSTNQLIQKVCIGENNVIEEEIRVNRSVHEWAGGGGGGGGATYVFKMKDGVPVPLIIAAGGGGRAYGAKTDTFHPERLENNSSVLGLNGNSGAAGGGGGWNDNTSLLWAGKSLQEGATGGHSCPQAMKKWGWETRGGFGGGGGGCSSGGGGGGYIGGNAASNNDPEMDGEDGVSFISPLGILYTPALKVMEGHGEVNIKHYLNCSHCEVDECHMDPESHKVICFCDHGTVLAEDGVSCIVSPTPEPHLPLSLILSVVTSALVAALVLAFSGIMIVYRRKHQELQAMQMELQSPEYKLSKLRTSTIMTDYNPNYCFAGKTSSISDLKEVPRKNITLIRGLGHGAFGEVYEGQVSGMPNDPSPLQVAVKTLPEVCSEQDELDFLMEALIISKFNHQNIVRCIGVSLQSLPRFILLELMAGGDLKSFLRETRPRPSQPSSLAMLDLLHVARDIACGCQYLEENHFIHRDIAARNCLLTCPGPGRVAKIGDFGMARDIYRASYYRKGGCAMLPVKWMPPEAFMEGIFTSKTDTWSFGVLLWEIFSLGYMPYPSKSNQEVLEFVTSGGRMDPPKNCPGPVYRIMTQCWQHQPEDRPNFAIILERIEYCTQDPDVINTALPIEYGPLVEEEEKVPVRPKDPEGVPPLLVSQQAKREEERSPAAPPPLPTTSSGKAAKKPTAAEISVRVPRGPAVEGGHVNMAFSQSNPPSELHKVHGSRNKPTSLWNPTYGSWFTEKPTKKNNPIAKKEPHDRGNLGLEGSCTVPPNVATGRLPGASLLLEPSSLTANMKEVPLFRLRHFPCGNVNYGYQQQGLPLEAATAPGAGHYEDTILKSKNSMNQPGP
ALK tyrosine kinase receptor (Homo sapiens), Q9UM73 [G1202R], sequence (Q9UM73 whole entry G1202R): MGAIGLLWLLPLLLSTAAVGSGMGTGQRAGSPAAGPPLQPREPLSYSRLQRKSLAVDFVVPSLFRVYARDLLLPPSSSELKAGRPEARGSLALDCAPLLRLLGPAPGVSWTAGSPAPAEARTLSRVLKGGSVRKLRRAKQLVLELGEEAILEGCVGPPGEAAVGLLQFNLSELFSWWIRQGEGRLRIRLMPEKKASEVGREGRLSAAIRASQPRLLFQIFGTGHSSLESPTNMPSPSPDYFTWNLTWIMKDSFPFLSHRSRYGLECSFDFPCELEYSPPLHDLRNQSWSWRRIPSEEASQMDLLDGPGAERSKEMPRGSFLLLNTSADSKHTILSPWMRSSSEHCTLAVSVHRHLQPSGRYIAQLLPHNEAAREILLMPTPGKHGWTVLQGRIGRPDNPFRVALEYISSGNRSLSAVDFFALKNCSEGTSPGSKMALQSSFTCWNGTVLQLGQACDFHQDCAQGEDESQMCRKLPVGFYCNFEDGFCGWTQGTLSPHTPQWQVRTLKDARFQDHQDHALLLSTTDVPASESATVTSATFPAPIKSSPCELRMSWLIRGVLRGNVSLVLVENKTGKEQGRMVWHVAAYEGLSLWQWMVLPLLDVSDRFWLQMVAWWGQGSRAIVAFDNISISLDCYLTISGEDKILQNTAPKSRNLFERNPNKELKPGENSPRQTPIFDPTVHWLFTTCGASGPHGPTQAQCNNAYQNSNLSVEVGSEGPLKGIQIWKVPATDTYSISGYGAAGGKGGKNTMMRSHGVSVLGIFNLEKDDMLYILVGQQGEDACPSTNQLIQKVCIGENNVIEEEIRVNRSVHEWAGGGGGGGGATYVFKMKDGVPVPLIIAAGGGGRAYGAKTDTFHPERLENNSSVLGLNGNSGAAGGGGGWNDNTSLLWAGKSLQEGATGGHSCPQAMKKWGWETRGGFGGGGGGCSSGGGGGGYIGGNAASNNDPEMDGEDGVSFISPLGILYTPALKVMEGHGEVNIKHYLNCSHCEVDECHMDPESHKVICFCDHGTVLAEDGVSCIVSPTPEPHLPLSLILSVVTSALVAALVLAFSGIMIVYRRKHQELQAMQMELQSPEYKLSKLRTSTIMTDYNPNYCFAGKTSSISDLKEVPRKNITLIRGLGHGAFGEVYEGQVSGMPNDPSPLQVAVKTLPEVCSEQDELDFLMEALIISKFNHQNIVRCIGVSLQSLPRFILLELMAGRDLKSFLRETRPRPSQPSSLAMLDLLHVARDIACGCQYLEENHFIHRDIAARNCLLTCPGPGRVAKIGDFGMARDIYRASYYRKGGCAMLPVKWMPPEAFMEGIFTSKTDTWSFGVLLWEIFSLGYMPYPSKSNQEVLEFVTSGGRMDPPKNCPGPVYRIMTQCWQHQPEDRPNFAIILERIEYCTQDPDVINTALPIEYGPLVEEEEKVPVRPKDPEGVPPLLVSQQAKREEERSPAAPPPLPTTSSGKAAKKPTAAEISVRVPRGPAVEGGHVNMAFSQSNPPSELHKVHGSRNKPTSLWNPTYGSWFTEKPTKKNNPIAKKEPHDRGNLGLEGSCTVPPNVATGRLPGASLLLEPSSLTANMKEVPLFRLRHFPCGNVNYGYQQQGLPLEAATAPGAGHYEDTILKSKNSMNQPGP

With `CC(C)S(=O)(=O)c1ccccc1Nc1nc(Nc2ccc(NC(=O)CCCCCCC(=O)NO)cc2)ncc1Cl`, the “Ratio IC50” value in data set [1] stood at 3; in [2], 3; in data set [12] it was 3; in [13], 10; in data set [17], 3. Also, the Activity in data set [3] stood at 32.97%; in data set [7] it was 14.37%; in [10], 32.42%; in data set [14], 5.5%; in [15], 4.02%; in data set [16], 4.42%. The Activity in data set [18] amounted to 3.7%; in [19], 75.94%. Further, the IC50 in [4] came out at 460 nM; in data set [23] it was 4.4 nM. The inhibition entry in data set [5], in [6] and in data set [8] was “Dose-Dependent Effect” in each case. Further, in [9], the MRT was 7.8 min. For the same molecule, the inhibition entry in data set [11] and in data set [20] was “Active” in each case. In addition, the peak level in data set [21] (Cmax) was 1480 ng/mL. In addition, the AUC(0-inf) in data set [22] was determined as 205 ng·h/mL.

Usually IC50 stands for the concentration that inhibits the measured activity by half. A low value points to greater potency. Usually MRT stands for the average time that molecules of a dose stay in the body. One may read the Cmax as the maximum level reached in the sampled fluid or tissue. The term AUC(0-inf) denotes the area under the concentration-time curve extrapolated to infinity.
